Results: patent US5300304A, “Pulsatile once-a-day delivery systems for minocycline” (priority 1992, dated 1994)
Like-named read-outs stand apart in the source and are kept apart here.

Assays:
[1] = test system: gram-negative and gram-positive bacteria; conditions: PDR 43rd Ed.; cited from earlier work
[2] = taken without food; cited from earlier work

Structure (SMILES): CN(C)c1ccc(O)c2c1C[C@H]1C[C@H]3[C@H](N(C)C)C(=O)C(C(N)=O)=C(O)[C@@]3(O)C(=O)C1=C2O [minocycline, 7-dimethylamino-6-deoxy-6-demethyltetracycline]
- organisms susceptible to minocycline therapy [1]: wide range of gram-negative and gram-positive bacteria
- half life [2]: approximately 10 hours
- bioavailability of minocycline in the gastrointestinal tract (duodenum, based upon 100 percent absorption in the stomach): 106%
- absorption in the lower gastrointestinal tract (human patients, intubation): reduced absorption
- bioavailability of minocycline in the gastrointestinal tract (ileum, based upon 100 percent absorption in the stomach): 58%
- bioavailability of minocycline in the gastrointestinal tract (jejunum, based upon 100 percent absorption in the stomach): 80%
- bioavailability of minocycline in the gastrointestinal tract (stomach, reference (100 percent absorption in the stomach)): 100%
